Earlier results as cited in US20070259329A1, “Anergy-inducing cellular composition” (BioVerde. Inc., priority 2006, published 2007).
Read-outs that look alike come from different tables or passages of the source.

Tests used:
[1] = test system: antibody-stimulated peripheral blood mononuclear cells; settings: Falchetti et al. (2001), cited from earlier work
[2] = test system: T-cells; settings: Sanbongi et al. (1997); cited from earlier work

| SMILES | cytokine productions ([1]; low concentrations (5-10 ppm)) | cytokine productions ([1]; still lower concentrations (0.625-2.5 ppm)) | proliferative responses of T-cells [2] |
| --- | --- | --- | --- |
| Oc1ccc(C=Cc2cc(O)cc(O)c2)cc1 [resveratrol] | inhibited | enhanced | – |
| Oc1cc(O)c2c(c1)O[C@H](c1ccc(O)c(O)c1)[C@H](O)C2 [(−)-epicatechin] | – | – | inhibited |
